Patent US5583127A, “17-iminomethylalkenyl-5 β, 14 β-androstane and 17-iminoalkyl-5 β, 14 β-androstane derivatives active on the cardiovascular system, and pharmaceutical compositions containing same” (Sigma-Tau Industrie Farmaceutiche Riunite S.p.A., priority 1993, dated 1996)
Where two headings read alike, the source gives them in different places.

Assays:
[1] = molecular target: Na^+, K^+ -ATPase receptor (Homo sapiens, UniProt P05023); test: displacement of the specific 3H-ouabain binding from the Na+,K+-ATPase receptor
[2] = system: spontaneous hypertensive rats (MHS); test: effect of 5 week-treatment in spontaneous hypertensive rats (MHS) on the development of hypertension (SBP and HR, tail cuff); assay type: in vivo, rat; conditions: 10 mg/Kg/os daily in Methocel 0.5% w/v, 5 weeks
Experimental: Systolic blood pressure (SBP) and heart rate (HR) were measured, by the tail cuff method, in young prehypertensive male rats (MHS or SHR) strains before the development of hypertension (4 weeks of age) for recording the basal values of SBP. Groups of 7 rats were formed and subdivided in control and treated groups. The compound, suspended in Methocel 0.5% (w/v), was orally given daily for at least 5 weeks to the treated groups. The control group received only Methocel. SBP and HR were measured weekly 6 and 24 hrs after treatment. After 5 weeks of treatment, when hypertension was fully developed in the control group (9 weeks of age), washout was started for at least one week, to verify whether the treatment maintained blood pressure low or reestablished the basal values. […] (Takeda K. et al., Japan J. Pharmacol., 1979, 29,171; Takeda K. et al. Japan J. Pharmacol., 1982, 32, 283; Richer C. et al. Eur. J. Pharmacol, 1978, 47,393).

[3] = reported in literature; cited from earlier work
Na^+,K^+ -ATPase = conditions: reported in literature; cited from earlier work
[4] = molecular target: purified Na^+,K^+ -ATPase (Homo sapiens, UniProt P05023); test: inhibition of the activity of the purified Na+,K+-ATPase (% hydrolysis of 32P-ATP); assay type: biochemical; conditions: read-out: Inhibitory Activity log IC50 (converted)
[5] = displacement of specific 3H-ouabain binding, read-out: Binding ^3 H-Ouab. Displacement log IC50 (converted)

| SMILES | IC50 [1, 5] | IC50 ([4]; purified Na+,K+-ATPase) | also measured |
| --- | --- | --- | --- |
| C[C@]12CC[C@H](O)C[C@H]1CC[C@@H]1[C@@H]2CC[C@]2(C)[C@@H](/C=C/C=N/NC(=N)N)CC[C@]12O [Comp. I-aa, (E,E)-17β-(3-Guanidinoimino-1-propenyl)-5β-androstane-3β,14β-diol] | 25.1 nM |  | SBP (systolic blood pressure) ([2]; controls 172 +/- 3.5): 149 +/- 3.9 mm Hg; HR (heart rate) ([2]; controls 380 +/- 9.0): 373 +/- 10.0 beats/min. |
| C[C@]12CC[C@H](O)C[C@H]1CC[C@@H]1[C@@H]2CC[C@]2(C)C(=NNC(=N)N)CC[C@]12O [17-guanidinoimino-5β-androstane-3β,14β-diol] |  |  | positive inotropic activity [3]: weak positive inotropic agents; inhibition of Na+,K+-ATPase (Na^+,K^+ -ATPase): weak inhibitors of Na^+,K^+ -ATPase |
| C[C@]12CC[C@H](O)C[C@H]1CC[C@@H]1[C@@H]2CC[C@]2(C)[C@@H](C=NNC(=N)N)CC[C@]12O [17β-guanidinoiminomethyl-5β-androstane-3β,14β-diol] |  |  | positive inotropic activity [3]: weak positive inotropic agents; inhibition of Na+,K+-ATPase (Na^+,K^+ -ATPase): weak inhibitors of Na^+,K^+ -ATPase |
| CN(C)CCON=CC[C@H]1CC[C@]2(O)[C@@H]3CC[C@@H]4C[C@@H](OCCN5CCCC5)CC[C@]4(C)[C@H]3CC[C@]12C (mixture of isomers) [Comp. I-cg, 3β-[2-(1-Pyrrolidinyl)ethoxy]-17β-[3-(EZ)-(2-dimethylamino-ethoxyimino)ethyl]-5β-androstane-14β-ol] | 31.6 nM | 100 nM |  |
| C[C@]12CC[C@H](O)C[C@H]1CC[C@@H]1[C@@H]2CC[C@]2(C)[C@@H](/C=C/C=N/NC(N)=S)CC[C@]12O [Comp. I-al, (E,E)-17β-(3-Thiosemicarbazono-1-propenyl)-5β-androstane-3β,14β-diol] | 3980 nM | 39800 nM |  |
| CN(C)CCON=C/C=C/[C@H]1CC[C@]2(O)[C@@H]3CC[C@@H]4C[C@@H](OCCN)CC[C@]4(C)[C@H]3CC[C@]12C (mixture of isomers) [Comp. I-cc, 3β-(2-Aminoethoxy)-17β-[3-(EZ)-(2-dimethylaminoethoxyimino)-1-(E)-propenyl]-5_62-androstane-14β-ol] | 20 nM | 31.6 nM |  |
| C[C@]12CC[C@H](O)C[C@H]1CC[C@@H]1[C@@H]2CC[C@]2(C)[C@@H](CC=NOCCN)CC[C@]12O (mixture of isomers) [Comp. I-bf, (EZ)-17β-[2-(2-Aminoethoxyimino)ethyl]-5β-androstane-3β,14β-diol] | 25.1 nM | 316 nM |  |
| C[C@]12CC[C@H](O)C[C@H]1CC[C@@H]1[C@@H]2CC[C@]2(C)[C@@H](/C=C/C=C/C=N/NC3=NCCN3)CC[C@]12O [Comp. I-av, (E,E,E)-17β-[5-(2-Imidazolin-2-yl)hydrazono-1,3-pentadienyl]-5β-androstane-3β,14β-diol] | 1000 nM | 10000 nM |  |
| C[C@]12CC[C@H](O)C[C@H]1CC[C@@H]1[C@@H]2CC[C@]2(C)[C@@H](/C=C/C=N/NC(=N)Nc3ccccc3)CC[C@]12O [Comp. I-aj, (E,E)-17β-[3-(3-Phenyl)guanidinoimino-1-propenyl]-5β-androstane-3β,14β-diol] | 1000 nM |  | IC50 [4]: 10000 nM |
| C[C@]12CC[C@H](O)C[C@H]1CC[C@@H]1[C@@H]2CC[C@]2(C)[C@@H](/C=C/C=N/OCCN)CC[C@]12O [Comp. I-ao, (E,E)-17β-[3-(2-Aminoethoxyimino)-1-propenyl]-5β-androstane-3β,14β-diol] | 15.8 nM | 20 nM |  |
| CN(C)CCON=C/C=C/[C@H]1CC[C@]2(O)[C@@H]3CC[C@@H]4C[C@@H](OCCN5CCCC5)CC[C@]4(C)[C@H]3CC[C@]12C (mixture of isomers) [Comp. I-by, 3β-[2-(1-Pyrrolidinyl)ethoxy]-17β-[3-(EZ)-(2-dimethylamino-ethoxyimino)-1-(E)-propenyl]-5β-androstane-14β-ol] | 20 nM | 31.6 nM |  |
| CC(CO[C@H]1CC[C@@]2(C)[C@H](CC[C@@H]3[C@@H]2CC[C@]2(C)[C@@H](/C=C/C=NOCCN(C)C)CC[C@]32O)C1)N1CCCC1 (mixture of isomers) [Comp. I-ca, 3β-[2-(1-Pyrrolidinyl)propoxy]-17β-[3-(EZ)-(2-dimethylamino-ethoxyimino)-1-(E)-propenyl]-5β-androstane-14β-ol] | 31.6 nM | 39.8 nM |  |
| C[C@]12CC[C@H](O)C[C@H]1CC[C@@H]1[C@@H]2CC[C@]2(C)[C@@H](CCC=NNC(=N)N)CC[C@]12O (mixture of isomers) [Comp. 1-bi, (EZ)-17β-(3-Guanidinoiminopropyl)-5β-androstane-3β,14β-diol] | 126 nM | 2000 nM |  |
| C[C@]12CC[C@H](O)C[C@H]1CC[C@@H]1[C@@H]2CC[C@]2(C)[C@@H](/C=C/C=N/OCCCN)CC[C@]12O [Comp. I-ap, (E,E)-17β-[3-(3-Aminopropoxyimino)-1-propenyl]-5β-androstane-3β,14β-diol] |  | 100 nM | IC50 [1]: 50.1 nM |
| CN(C)CCON=CCC[C@H]1CC[C@]2(O)[C@@H]3CC[C@@H]4C[C@@H](O)CC[C@]4(C)[C@H]3CC[C@]12C (mixture of isomers) [Comp. I-bn, (EZ)-17β-[3-(2-Dimethylaminoethoxyimino)propyl]-5β-androstane-3β,14β-diol] | 25.1 nM | 100 nM |  |
| CN(C)CCON=CC[C@@]1(O)CC[C@]2(O)[C@@H]3CC[C@@H]4C[C@@H](O)CC[C@]4(C)[C@H]3CC[C@]12C (mixture of isomers) [Comp. I-bt, (EZ)-17β-[2-(2-Dimethylaminoethoxyimino)ethyl]-5β-androstane-3β,14β,17α-triol] | 794 nM | 10000 nM |  |
| C[C@]12CC[C@H](O)C[C@H]1CC[C@@H]1[C@@H]2CC[C@]2(C)[C@@H](CC=NNC(=N)N)CC[C@]12O (mixture of isomers) [Comp. I-bc, (EZ)-17β-(2-Guaidinoimino)ethyl-5β-androstane-3β,14β-diol] | 79.4 nM | 398 nM |  |
